These results are taken from patent US4242327A, “Antibiotic SF-2052 substance and production and use thereof” (Meiji Seika Kaisha, Ltd., priority 1978, dated 1980).

A word on the MIC: it is the lowest concentration found to suppress growth. A lower MIC goes with greater potency. Broadly, the LD50 is the dose at which mortality reaches 50%.

Data set [1] in a line: Stability. The class given is physicochemical.
Data set [2] is described as follows: Solubility. In kind it is physicochemical. Conditions: for solubility in organic solvents: chloroform, ethyl acetate.
In data set [3] the test system is Escherichia coli B. The data set is described as follows: Minimum inhibitory concentration, standard serial dilution method on Heart Infusion agar. In kind it is cell-based. Conditions: 37° C., 16 hours. The procedure: (§1) Antibacterial activity of SF-2052 substance of this invention (as the sulfate) to inhibit the growth of various bacteria was estimated according to a standard serial dilution method using Heart Infusion agar as the incubation medium. The incubation was made at a temperature of 37° C. for 16 hours.

For data set [4], the system named is Klebsiella pneumonia. The description is as above. In kind it is cell-based. Conditions: Klebsiella pneumoniae, 37° C., 16 hours. How it is done: as §1
Data set [5] relates to Sarcina lutea. Described as above. In kind it is cell-based. Conditions: Micrococcus luteus, 37° C., 16 hours. How it is done:
as §1

Data set [6] concerns Bacillus subtillis PCI-219. The description is as above. In kind it is cell-based. Particulars: PCI219, 37° C., 16 hours. The procedure:
as §1

Data set [7] concerns Mycobacterium smegmatis 607 Km-R. The description is as above. In kind it is cell-based. Particulars: Mycolicibacterium smegmatis, 607KMR, 16 h. How it is done:
as §1

In data set [8] the test system is Pseudomonas aeruginosa. The description is as above. Conditions: 37° C., 16 hours. The class given is cell-based. How it is done:
as §1

Data set [9] relates to Proteus vulgaris. Described as above. In kind it is cell-based. Conditions: 37° C., 16 hours. How it is done:
as §1

The subject of data set [10] is Escherichia coli. The data set is described as above. In kind it is cell-based. Particulars: 37° C., 16 hours. How it is done: as §1
The test system of data set [11] is Escherichia coli K-12-R. The description is as above. In kind it is cell-based. Particulars: 16 h. How it is done: as §1
For data set [12], the system named is Staphylococcus aureus 209P. The data set is described as above. The class given is cell-based. Particulars: 37° C., 16 hours. The procedure:
as §1

Data set [13] concerns Mycobacterium smegmatis 607 Sm-R. The data set is described as above. In kind it is cell-based. Conditions: Mycolicibacterium smegmatis, 607SMR, 16 h. How it is done:
as §1

Data set [14] has as its system mice. The data set is described as follows: Acute toxicity, intravenous injection in mice. The class given is in vivo. Conditions: in words. An excerpt:
(§2) For determination of acute toxicity of the SF-2052 substance sulfate, this was intravenously injected as its solution in isotonic aqueous solution of sodium chloride into several groups of mice. […] According to this invention, therefore, there is further provided an antibacterial composition comprising as the active ingredient an antibacterially effective amount of at least one of the pharmaceutically acceptable acid-addition salts of the SF-2052 substance, in association with a pharmaceutically acceptable liquid or solid carrier. The content of this active ingredient in this antibacterial composition may be in a range of 5% to 50% by weight of the composition.

Data set [15] can be described thus: Acute toxicity, intravenous injection in mice. Particulars: mouse, in vivo, solution in isotonic aqueous sodium chloride, estimated. The class given is in vivo.
Description: as §2

Data set [16] relates to gram-negative and gram-positive bacteria. Kind of data set: Antibacterial activity, summary of Table 1. Particulars: against both gram-negative and gram-positive bacteria. The class given is cell-based. The procedure: as §1

“Also recorded” adds a separate entry of the source. Where a name gives a salt, the structure may show the parent alone.

Regarding `COC1C(O)C(N)C(OC2OC(C(C)N)CCC2N)C(O)C1N(C)C(=O)CNC=N` (stereo not drawn) [SF-2052 substance hydrochloride], the “stability under acidic to neutral pH conditions” value in [1] (acidic to neutral pH) is reported as “Relatively stable; also recorded: substantially stable”. The “stability under alkaline pH conditions” value in [1] was “instable”. The “solubility in organic solvents” value in [2] (hexane, benzene and ethylether etc.) was “substantially insoluble”; in data set [2] (benzene and ethylether) it was “insoluble”. Besides, in data set [2] (methanol), the solubility in methanol result was “soluble in methanol”. The solubility in water result in [2] (water) was “Easily soluble in water; also recorded: readily soluble in water”.
As for `COC1C(O)C(N)C(OC2OC(C(C)N)CCC2N)C(O)C1N(C)C(=O)CNC=N` (stereo not drawn) [SF-2052 substance sulfate], the MIC in data set [3] was found to be 6.25 µg/mL; in [4], 3.12 µg/mL; in data set [5], 0.78 µg/mL; in data set [6], 1.56 µg/mL; in [7], 100 µg/mL; in data set [8], 100 µg/mL. For the same compound, the MIC in data set [9] came out at 1.56 µg/mL; in data set [10], 12.5 µg/mL; in data set [11] it was 3.12 µg/mL; in data set [12] it was 3.12 µg/mL; in data set [13] it was 1.56 µg/mL. Further, the acute toxicity result in [14] was “substantially non-toxic”. Further, the LD50 in [15] was 350 mg/kg.
For the compound `COC1C(O)C(N)C(OC2OC(C(C)N)CCC2N)C(O)C1N(C)C(=O)CNC=N` (stereo not drawn) [SF-2052 substance], in [1], the “stability under alkaline pH conditions” value is listed as “very instable; also recorded: instable”. In data set [16], the antibacterial activity result was “high antibacterial activity against both gram-negative and gram-positive bacteria”.
